This is an account of results in patent EP0182152B1, “Antitumor antibiotics (LL-E33288 Complex)” (AMERICAN CYANAMID COMPANY, priority 1984, dated 1986).

Assay [1] has as its system Providencia stuartii. Nature of the assay: in vitro antibacterial activity, agar dilution MIC. The format is cell-based. Conditions: Providencia stuartii CMC 83-82. As for the experimental part:
(§1) The in vitro antibacterial activity of LL-E33288 components was determined against a spectrum of gram-positive and gram-negative bacteria by a standard agar dilution method. Mueller-Hinton again containing two-fold decreasing concentrations of the antibiotics were poured into petri plates. the agar surfaces were inoculated with 1 to 5 x 10^4 colong forming units of bacteria by means of the steers replicating device.
A general note: In agar dilution the substance is mixed into plates at graded concentrations.

Assay [2] has as its system Serratia marcescens. The experiment in a line: in vitro antibacterial activity, agar dilution MIC. The format is cell-based. As for the experimental part:
as §1

Assay [3] deals with Acinetobacter sp. The experiment in a line: in vitro antibacterial activity, agar dilution MIC. The format is cell-based. As for the experimental part: as §1
The subject of assay [4] is Escherichia coli. Nature of the assay: in vitro antibacterial activity, agar dilution MIC. The format is cell-based. As for the experimental part: as §1
Assay [5] concerns Citrobacter freundii. The experiment in a line: in vitro antibacterial activity, agar dilution MIC. The format is cell-based. Conditions: Citrobacter freundii IO 83-13. As for the experimental part: as §1
Assay [6] concerns Enterobacter aerogenes. The experiment in a line: in vitro antibacterial activity, agar dilution MIC. The format is cell-based. Conditions: Enterobacter aerogenes IO 83-44. As for the experimental part:
as §1

The subject of assay [7] is Enterobacter cloacae. The experiment in a line: in vitro antibacterial activity, agar dilution MIC. The format is cell-based. The note with it: Enterobacter cloacae CMC 84-4. As for the experimental part: as §1
In assay [8] the test system is Morganella morganii. The experiment in a line: in vitro antibacterial activity, agar dilution MIC. The format is cell-based. The note with it: Morganella morganii IO 83-18. As for the experimental part: as §1
The subject of assay [9] is Klebsiella pneumoniae. Nature of the assay: in vitro antibacterial activity, agar dilution MIC. The format is cell-based. As for the experimental part: as §1
The subject of assay [10] is Citrobacter diversus. The experiment in a line: in vitro antibacterial activity, agar dilution MIC. Conditions: Citrobacter diversus K 82-84. The format is cell-based. As for the experimental part:
as §1

The subject of assay [11] is M5076 reticular cell Sarcoma. The experiment in a line: M5076 Sarcoma test. The format is in vivo, BDF1 mice. Conditions: Table VIII, i.p. days 1, 5, 9, 13 and 17, control 28.5 days. As for the experimental part: The M5076 reticular cell Sarcoma is propagated as subcutaneous implants in C57B2/6 female mice. In the assays for antitumor activity, BDF1 mice of either sex were inoculated intraperitoneally with 0.5 ml of a 10% tumor brei. LL-E33288 antibiotics were tested in the M5076 system as a complex (Bromo-complex) of all components. Test compounds were administered intraperitoneally on days 1, 5, 9, 13 and 17 relative to tumor inoculation on day zero. The median survival time in days was determined for each drug dose used on day 60 and the ratio of survival time for treated (T)/control (C) animals were calculated. The results of this test appear in Table VIII compared to the results obtained with Cisplatin. If T/C X 100 (%) is 125 or over, the tested compound is considered to have significant anti-tumor activity.

As for `CCN[C@H]1CO[C@@H](O[C@H]2[C@H](O[C@H]3C#CC=CC#C[C@@]4(O)CC(=O)C(NC(=O)OC)=C3/C4=C\CSSSC)O[C@H](C)[C@@H](NO[C@H]3C[C@H](O)[C@H](SC(=O)c4c(C)c(I)c(O[C@@H]5O[C@@H](C)[C@H](O)[C@@H](OC)[C@H]5O)c(OC)c4OC)[C@@H](C)O3)[C@@H]2O)C[C@@H]1OC` (stereo in doubt) [LL-E33288γ1-I], the “Minimal Inhibitory Concentration” value turned out to be 0.25 µg/mL in assay [1]; 0.25 µg/mL in assay [2] (Serratia marcescens CMC 83-27); 0.12 µg/mL in assay [2] (Serratia marcescens F35 (MP)); 0.12 µg/mL in assay [3] (Acinetobacter sp. CMC 83-89); 0.06 µg/mL in assay [3] (Acinetobacter sp. IO 83-49); 0.25 µg/mL in [4] (Escherichia coli ATCC 25922). Moreover, the “Minimal Inhibitory Concentration” value in [4] (Escherichia coli CMC 84-11, about 18 hours, 35°C) turned out to be 0.25 µg/mL; in assay [4] (Escherichia coli No. 311-(MP)), 0.25 µg/mL; in assay [5], 0.12 µg/mL; in assay [6], 0.50 µg/mL; in assay [7], 0.50 µg/mL; in assay [8], 0.25 µg/mL. Moreover, the “Minimal Inhibitory Concentration” value in [9] (Klebsiella pneumoniae AD (MP)), in assay [9] (Klebsiella pneumoniae CMC 84-5) and in [10] was 0.25 µg/mL in each case.
`N.N.[Cl][Pt][Cl]` [Cisplatin, reference compound]: the “Median Survival” value was determined as 45 days in [11] (dose 0.25 mg/kg), 44.5 days in [11] (dose 0.5 mg/kg) and 30 days in [11] (dose 1 mg/kg). In addition, the “T/C x 100” value in assay [11] (dose 0.25 mg/kg) was determined as 158%; in assay [11] (dose 0.5 mg/kg), 156%; in assay [11] (dose 1 mg/kg), 105%.
